{
  "source": "paper PMC9268243",
  "about": "“Metabolic Behaviors of Aconitum Alkaloids in Different Concentrations of Aconiti Lateralis Radix Praeparata and Effects of Aconitine in Healthy Human and Long QT Syndrome Cardiomyocytes” (Molecules, 2022)",
  "key": {"LQT syndrome hiPSC-CMs [1]": {"system": "LQT syndrome hiPSC-CMs", "test": "Ca2+ imaging of calcium transients, LQT syndrome hiPSC-CMs", "assay_type": "cell-based, human", "settings": "cardiomyocytes of LQTS, 5 μM", "method": "(§1) Dissociated day 30–33 post-differentiation hiPSC-CMs (healthy and LQT specific patient) were reseeded Matrigel-coated plate in HELP4004 (HELP) and were treated with 5 μM Fluo-3 AM and 0.02% Pluronic (Life Technologies) in DMEM/F12 (Gibco) for 60 min at 37 °C. Cells were washed with DMEM/F12 without fluorochrome solution afterwards for 30 min, replaced the solution with Tyrode’s solution. Ca^2+ imaging was conducted using Olympus IX71 confocal microscope (Olympus IX71, Tokyo, Japan) and analyzed using Olympus imaging software. Ca^2+ spontaneous transients were obtained using a single cell line scan mode at 37 °C.\n(§2) Isoproterenol, nifedipine, and AC were purchased from Sigma-Aldrich, which were resolved in DMSO (Sigma-Aldrich, D2650). Drug compounds final concentration were AC (0.05, 0.5,5 μM), nifedipine (1 μM), isoproterenol (3 μM), respectively. Dilutions were prepared within 60 min of treatment. All the compound solutions were subjected to regular 10 min ultrasound and oscillations to ensure that compounds were completely dissolved. Equal amounts of DMSO (0.1%) were used as the vehicle controls."}, "LQT syndrome hiPSC-CMs [2]": {"system": "LQT syndrome hiPSC-CMs", "test": "Impedance beating recordings (cell index, beat rate, amplitude), LQT syndrome hiPSC-CMs", "assay_type": "cell-based, human", "method": "(§3) HiPSCs derived from healthy controls (Cat: NC20010002; Lot.HJ210577NC22), or patients (Cat. NC20300002; Lot. CP210578NC04) diagnosed with LQT syndrome was maintained in HELP4004 (HELP, Nanjing, China) medium on Matrigel-coated (BD Bio science, San Jose, CA, USA) plates at 37 °C; with 5% CO2 (v/v).\n(§4) The cardiomyocytes were seeded on Nanion CardioExcyte 96 Sensor Plates (NSP-96, Nanion Technologies, Munich, Germany) after 0.1% gelatin coating for 1 h. The initial volume was 200 μL per well and contained approximately […]. After seeding, the NSP-96 and CardioExcyte 96 were returned to the incubator. All cells were replaced with fresh medium 200 μL per well every 48 h and tested after 168 h. Cellular index, beat rate, base impedance and beat amplitude were monitored in this experiment.\nas §2"}, "normal hiPSC-CMs [3]": {"system": "normal hiPSC-CMs", "test": "Whole-cell current-clamp action potential recording, normal hiPSC-CMs", "assay_type": "cell-based, human", "settings": "normal hiPSC-CMs, 0.05, 0.5 and 5 μM, 1 Hz stimulation", "from_the_text": "(§5) Standard patch-clamp techniques were used to record action potentials, and L-type calcium currents. Composition of intracellular fluid and extracellular fluid were shown in Table 7 and Table 8, respectively. The signal was amplified using an HEKA EPC-10 patch-clamp amplifier (HEKA, Electronics, Ludwigshafen, Germany) and low-pass filtered at 5 kHz. Patch pipettes were fabricated from glass capillaries using a Sutter P-97 microelectrode puller (Novato, CA, USA) and the tips were heat polished with a microforge (NARISHIGE MF-900) to gain a resistance of 2–5 MΩ. Data acquisition was achieved using HEKA Patchmaster (V2x73.2). Data analysis and fit were performed using Clamfit and Graphpad Prism 6.0. The experiment was conducted at 37 °C. One cell can test one or more drugs, or multiple concentrations of the same drug but needs to be rinsed with extracellular fluid between each test. Nifedipine (Sigma) was used as a positive control to ensure cell quality. External solution containing 0.1% DMSO was applied as vehicle to establish the baseline. Recording was done at a temperature-controlled room of 35–37 degrees Celsius.\n(§6) Isoproterenol, nifedipine, and AC were purchased from Sigma-Aldrich, which were resolved in DMSO (Sigma-Aldrich, D2650). Drug compounds final concentration were AC (0.05, 0.5,5 μM), nifedipine (1 μM), isoproterenol (3 μM), respectively. […]"}, "myocardial cells": {"system": "myocardial cells", "parameters": "method as in our previous work", "settings": "low doses 5–20 nmol/L, ref our previous work; cited from earlier work"}, "LQTS hiPSC-CMs": {"system": "LQTS hiPSC-CMs", "test": "Whole-cell current-clamp action potential recording, LQTS hiPSC-CMs", "assay_type": "cell-based, human", "settings": "LQTS hiPSC-CMs, 0.05, 0.5 and 5 μM, 1 Hz stimulation", "from_the_text": "as §5, §6"}, "normal hiPSC-CMs [4]": {"system": "normal hiPSC-CMs", "test": "Impedance beating recordings (cell index, beat rate, amplitude), normal hiPSC-CMs", "assay_type": "cell-based, human", "method": "as §3, §4, §2"}, "[5]": {"molecular_target": "T1, L-type calcium current (ICa,L) in LQTS hiPSC-CMs (Homo sapiens, UniProt Q13936)", "T1 construct": "endogenous in cells; host or cells: LQTS patient-derived hiPSC cardiomyocytes", "T1 sequence (Q13936 whole entry)": "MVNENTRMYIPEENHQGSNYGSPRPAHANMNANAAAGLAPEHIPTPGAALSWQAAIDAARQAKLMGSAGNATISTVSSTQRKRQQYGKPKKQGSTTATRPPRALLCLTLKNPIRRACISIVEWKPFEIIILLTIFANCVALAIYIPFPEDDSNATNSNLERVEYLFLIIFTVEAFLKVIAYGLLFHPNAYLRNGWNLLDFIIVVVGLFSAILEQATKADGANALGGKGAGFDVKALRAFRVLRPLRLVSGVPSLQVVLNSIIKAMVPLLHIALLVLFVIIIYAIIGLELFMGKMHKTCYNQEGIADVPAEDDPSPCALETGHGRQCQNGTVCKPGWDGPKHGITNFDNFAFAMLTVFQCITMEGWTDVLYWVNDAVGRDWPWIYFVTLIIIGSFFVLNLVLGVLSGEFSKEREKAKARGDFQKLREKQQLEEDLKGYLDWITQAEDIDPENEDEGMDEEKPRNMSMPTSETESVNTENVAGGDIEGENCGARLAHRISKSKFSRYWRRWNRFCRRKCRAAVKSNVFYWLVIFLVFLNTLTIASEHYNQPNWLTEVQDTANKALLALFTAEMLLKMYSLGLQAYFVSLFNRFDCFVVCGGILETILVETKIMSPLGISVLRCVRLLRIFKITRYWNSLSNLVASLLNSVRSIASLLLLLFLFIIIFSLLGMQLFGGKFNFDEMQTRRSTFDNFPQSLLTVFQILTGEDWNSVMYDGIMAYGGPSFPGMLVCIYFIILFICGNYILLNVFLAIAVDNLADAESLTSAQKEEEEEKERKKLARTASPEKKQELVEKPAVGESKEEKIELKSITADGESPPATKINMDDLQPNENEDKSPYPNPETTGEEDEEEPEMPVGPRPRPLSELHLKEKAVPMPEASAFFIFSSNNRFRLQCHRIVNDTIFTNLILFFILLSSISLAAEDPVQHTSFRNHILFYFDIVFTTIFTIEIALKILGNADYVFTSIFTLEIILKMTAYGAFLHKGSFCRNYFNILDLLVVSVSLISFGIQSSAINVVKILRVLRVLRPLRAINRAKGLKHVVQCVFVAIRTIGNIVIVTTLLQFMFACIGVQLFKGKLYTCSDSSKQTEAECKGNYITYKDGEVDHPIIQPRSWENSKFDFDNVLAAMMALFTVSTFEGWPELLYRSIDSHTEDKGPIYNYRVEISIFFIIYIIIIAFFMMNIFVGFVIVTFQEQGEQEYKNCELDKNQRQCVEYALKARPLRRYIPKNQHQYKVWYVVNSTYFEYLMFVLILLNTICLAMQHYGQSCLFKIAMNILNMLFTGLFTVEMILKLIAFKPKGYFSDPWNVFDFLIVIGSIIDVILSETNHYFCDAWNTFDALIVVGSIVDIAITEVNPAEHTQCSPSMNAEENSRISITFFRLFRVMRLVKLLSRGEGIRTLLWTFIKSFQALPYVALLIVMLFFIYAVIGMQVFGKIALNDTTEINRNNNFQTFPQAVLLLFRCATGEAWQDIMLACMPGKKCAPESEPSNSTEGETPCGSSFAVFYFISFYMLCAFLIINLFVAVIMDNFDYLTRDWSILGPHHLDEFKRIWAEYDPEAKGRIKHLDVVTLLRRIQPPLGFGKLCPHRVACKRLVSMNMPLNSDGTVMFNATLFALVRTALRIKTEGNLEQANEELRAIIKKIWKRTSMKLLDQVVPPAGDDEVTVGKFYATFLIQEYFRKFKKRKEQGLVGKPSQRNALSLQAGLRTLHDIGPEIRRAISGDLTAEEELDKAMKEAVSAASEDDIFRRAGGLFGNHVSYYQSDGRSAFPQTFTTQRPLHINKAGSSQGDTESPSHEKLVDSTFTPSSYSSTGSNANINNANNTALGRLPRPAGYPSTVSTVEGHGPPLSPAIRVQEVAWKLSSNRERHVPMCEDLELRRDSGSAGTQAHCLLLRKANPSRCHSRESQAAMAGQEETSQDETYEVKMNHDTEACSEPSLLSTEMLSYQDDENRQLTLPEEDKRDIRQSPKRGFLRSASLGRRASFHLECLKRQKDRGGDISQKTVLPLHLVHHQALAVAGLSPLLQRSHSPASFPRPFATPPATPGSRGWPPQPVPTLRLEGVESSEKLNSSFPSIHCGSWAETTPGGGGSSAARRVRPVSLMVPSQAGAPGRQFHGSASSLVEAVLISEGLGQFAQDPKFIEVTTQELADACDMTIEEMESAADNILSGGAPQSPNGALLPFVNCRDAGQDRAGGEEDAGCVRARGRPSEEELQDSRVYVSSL", "T1 sequence (Q08289 whole entry partner)": "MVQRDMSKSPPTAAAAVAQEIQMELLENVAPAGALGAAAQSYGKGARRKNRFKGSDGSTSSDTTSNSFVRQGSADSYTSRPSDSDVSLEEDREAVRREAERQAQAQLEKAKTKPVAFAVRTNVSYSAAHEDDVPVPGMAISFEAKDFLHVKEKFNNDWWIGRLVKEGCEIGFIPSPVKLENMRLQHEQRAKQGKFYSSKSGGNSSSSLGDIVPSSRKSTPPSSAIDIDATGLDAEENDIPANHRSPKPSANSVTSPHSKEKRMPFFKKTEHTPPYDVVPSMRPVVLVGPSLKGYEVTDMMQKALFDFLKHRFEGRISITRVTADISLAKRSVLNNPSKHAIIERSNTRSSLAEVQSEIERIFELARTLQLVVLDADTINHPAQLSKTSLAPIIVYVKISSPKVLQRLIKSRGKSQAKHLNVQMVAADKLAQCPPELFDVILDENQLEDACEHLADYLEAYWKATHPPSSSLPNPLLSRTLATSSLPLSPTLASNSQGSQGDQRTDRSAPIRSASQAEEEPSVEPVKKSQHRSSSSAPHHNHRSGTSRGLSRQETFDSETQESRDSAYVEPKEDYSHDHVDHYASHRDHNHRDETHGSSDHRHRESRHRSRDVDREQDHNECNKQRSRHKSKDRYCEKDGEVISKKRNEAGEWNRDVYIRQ", "T1 sequence (P54289 25-956 partner limits assumed)": "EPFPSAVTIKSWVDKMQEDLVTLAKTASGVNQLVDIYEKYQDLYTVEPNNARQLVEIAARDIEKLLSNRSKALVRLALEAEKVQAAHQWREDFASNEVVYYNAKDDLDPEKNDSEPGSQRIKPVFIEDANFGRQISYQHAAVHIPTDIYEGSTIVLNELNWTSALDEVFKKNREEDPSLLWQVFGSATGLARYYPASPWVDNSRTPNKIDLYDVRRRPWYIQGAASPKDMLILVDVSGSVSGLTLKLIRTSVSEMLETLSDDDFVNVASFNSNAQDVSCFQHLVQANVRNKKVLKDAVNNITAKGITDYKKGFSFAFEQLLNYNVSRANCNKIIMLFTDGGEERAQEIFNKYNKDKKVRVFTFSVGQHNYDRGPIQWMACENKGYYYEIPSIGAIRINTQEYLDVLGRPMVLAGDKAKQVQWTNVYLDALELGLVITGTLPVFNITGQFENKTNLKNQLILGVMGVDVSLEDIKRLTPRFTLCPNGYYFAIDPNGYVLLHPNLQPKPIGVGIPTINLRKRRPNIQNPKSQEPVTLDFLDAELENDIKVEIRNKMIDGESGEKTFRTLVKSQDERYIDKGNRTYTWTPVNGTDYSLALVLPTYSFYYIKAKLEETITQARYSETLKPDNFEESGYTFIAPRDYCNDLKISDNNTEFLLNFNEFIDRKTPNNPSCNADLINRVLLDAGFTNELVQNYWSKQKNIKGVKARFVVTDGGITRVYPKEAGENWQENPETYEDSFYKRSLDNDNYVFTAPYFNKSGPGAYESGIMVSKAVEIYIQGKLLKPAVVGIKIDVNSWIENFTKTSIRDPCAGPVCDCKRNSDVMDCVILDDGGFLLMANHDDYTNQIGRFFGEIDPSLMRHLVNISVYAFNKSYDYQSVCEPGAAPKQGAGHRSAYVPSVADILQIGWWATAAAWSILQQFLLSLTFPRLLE", "T1 sequence (P54289 957-1103 partner limits assumed)": "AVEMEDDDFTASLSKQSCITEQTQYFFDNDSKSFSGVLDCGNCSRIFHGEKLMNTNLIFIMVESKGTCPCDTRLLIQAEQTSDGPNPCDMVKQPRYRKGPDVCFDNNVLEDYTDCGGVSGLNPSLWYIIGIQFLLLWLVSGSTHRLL", "test": "Patch-clamp L-type calcium current, LQTS hiPSC-CMs", "assay_type": "cell-based", "from_the_text": "as §5, §2"}, "rats": {"system": "rats", "settings": "cited from earlier work"}, "normal hiPSC-CMs [6]": {"system": "normal hiPSC-CMs", "test": "Ca2+ imaging of calcium transients, normal hiPSC-CMs", "assay_type": "cell-based, human", "settings": "compared with the control group", "method": "as §1, §2"}, "[7]": {"settings": "LQT hiPSC-CMs, 0.05 μM, versus control group"}},
  "note": "Where two headings read alike, the source gives them in different places.",
  "data": [
    {"smiles": "CCN1C[C@]2(COC)[C@H](O)C[C@H](OC)[C@@]34[C@@H]5C[C@@]6(O)[C@H](OC(=O)c7ccccc7)[C@@H]5[C@@](OC(C)=O)([C@@H]([C@H](OC)[C@H]23)[C@@H]14)[C@@H](O)[C@@H]6OC", "note": "[AC, aconitine]", "values": [
      {"measurement": "frequency of calcium transient", "setting": "LQT syndrome hiPSC-CMs [1]", "result": "significantly increase"},
      {"measurement": "contraction force", "setting": "LQT syndrome hiPSC-CMs [2]; [7]", "result": "lower contraction force"},
      {"measurement": "contraction frequency", "setting": "LQT syndrome hiPSC-CMs [2]; [7]", "result": "higher contraction frequency"},
      {"measurement": "cell frequency", "setting": "LQT syndrome hiPSC-CMs [2]; LQT hiPSC-CMs, 0.5 μM", "result": "significantly increased"},
      {"measurement": "contractility", "setting": "LQT syndrome hiPSC-CMs [2]; LQT hiPSC-CMs, 0.5 μM", "result": "significantly increased"},
      {"measurement": "cell contractility", "setting": "LQT syndrome hiPSC-CMs [2]; LQT hiPSC-CMs, 5 μM, very weak within 30 h after treatment", "result": "decreased to zero"},
      {"measurement": "myocardial cell death", "setting": "LQT syndrome hiPSC-CMs [2]; LQT hiPSC-CMs, three concentrations (0.05, 0.5, 5 μM), 48 h observation period", "result": "None of the three concentrations caused significant myocardial cell death"},
      {"measurement": "cell index", "setting": "LQT syndrome hiPSC-CMs [2]; LQTS hiPSC-CMs, 5.0 μM, between 5–30 min", "result": "decreased the cell index"},
      {"measurement": "APD50", "setting": "normal hiPSC-CMs [3]", "result": "concentration-dependently shortened"},
      {"measurement": "mitochondrial energy metabolism", "setting": "myocardial cells", "result": "could improve mitochondrial energy metabolism"},
      {"measurement": "APD50", "setting": "LQTS hiPSC-CMs", "result": "concentration-dependently shortened"},
      {"measurement": "amplitude", "setting": "normal hiPSC-CMs [4]; normal hiPSC-CMs", "result": "concentration-dependently decreased"},
      {"measurement": "cell index", "setting": "normal hiPSC-CMs [4]; normal hiPSC-CMs", "result": "no significant effect"},
      {"measurement": "cell beat rate", "setting": "normal hiPSC-CMs [4]; normal hiPSC-CMs, 0.5 μM", "result": "faster after 12 h"},
      {"measurement": "cell contractility", "setting": "normal hiPSC-CMs [4]; normal hiPSC-CMs, 0.5 μM", "result": "decreased cell contractility"},
      {"measurement": "cell frequency", "setting": "normal hiPSC-CMs [4]; normal hiPSC-CMs, 0.5 μM", "result": "increased cell frequency"},
      {"measurement": "cell contractility", "setting": "normal hiPSC-CMs [4]; normal hiPSC-CMs, 5 μM, very weak within 6 h after treatment", "result": "significantly reduced"},
      {"measurement": "cardiomyocyte death", "setting": "normal hiPSC-CMs [4]; normal hiPSC-CMs, 0.05, 0.5 and 5 μM, 48 h observation period", "result": "None of the three concentrations (0.05, 0.5, and 5 μM) AC caused cardiomyocyte death"},
      {"measurement": "contraction force", "setting": "normal hiPSC-CMs [4]; normal hiPSC-CMs, versus control group, concentration not given", "result": "slightly lower"},
      {"measurement": "peak value of L-type calcium current", "setting": "[5]; LQT group, 0.05–5 μM", "result": "significantly decreased"},
      {"measurement": "IC50", "setting": "[5]; LQT hiPSC-CMs, tested 0.05–5 μM, no concentration dependence, read-out: IC50, inhibition of L-type calcium current", "result": "> 5", "unit": "µM"},
      {"measurement": "IC50", "setting": "[5]; LQTS hiPSC-CMs, estimated beyond tested range 0.05–5 μM, read-out: IC50 (eIC50) on ICa,L", "result": 27.2, "unit": "µM"},
      {"measurement": "toxic cardiovascular effects", "setting": "rats; oral 0.4 mg/kg", "result": "arrhythmia, lower heart rate, and blood pressure, were observed"},
      {"measurement": "toxic cardiovascular effects", "setting": "rats; oral low-dose 0.1 mg/kg", "result": "not found"},
      {"measurement": "amplitude and frequency of calcium transient", "setting": "normal hiPSC-CMs [6]", "result": "no significant effect"}
    ]}
  ]
}
